Laboratory results reported in ChEMBL document CHEMBL3232777, “QSAR models for HEPT derivates as NNRTI inhibitors based on Monte Carlo method” (Eur J Med Chem, 2014).

test system: Human immunodeficiency virus 1; test: Antiviral activity against HIV1 3B infected in human MT4 cells assessed as protection from cytopathic effect; assay type: functional, organism-based; conditions: Human immunodeficiency virus 1, 3B

SMILES | IC50
Cc1c(Sc2cccc(C(C)(C)C)c2)n(COCCO)c(=O)[nH]c1=O | 12 µM
C#Cc1c(Sc2ccccc2)n(COCCO)c(=O)[nH]c1=O | 18.2 µM
COc1cccc(Sc2c(C)c(=O)[nH]c(=O)n2COCCO)c1 | 21.9 µM
C=CCc1c(Sc2ccccc2)n(COCCO)c(=O)[nH]c1=O | 2.51 µM
O=c1[nH]c(=O)n(COCCO)c(Sc2ccccc2)c1Cl | 30.2 µM
Cc1c(Sc2ccccc2)n(COCCOCc2ccccc2)c(=O)[nH]c1=O | 20 µM
Cc1c(Sc2cccc(F)c2)n(COCCO)c(=O)[nH]c1=O | 3.31 µM
Cc1c(Sc2ccccc2[N+](=O)[O-])n(COCCO)c(=O)[nH]c1=O | 141 µM
O=c1[nH]c(=O)n(COCCO)c(Sc2ccccc2)c1Sc1ccccc1 | 20.9 µM
CCCc1c(Sc2ccccc2)n(COCCO)c(=S)[nH]c1=O | 10 µM
CCc1cccc(Sc2c(C)c(=O)[nH]c(=O)n2COCCO)c1 | 2.69 µM
O=c1[nH]c(=O)n(COCCO)c(Sc2ccccc2)c1Br | 20 µM
Cc1c(Sc2ccccc2)n(C)c(=O)[nH]c1=O | 151 µM
O=c1[nH]c(=O)n(COCCO)c(Sc2ccccc2)c1F | 100 µM
COCCOCn1c(Sc2ccccc2)c(C)c(=O)[nH]c1=O | 8.71 µM
Cc1c(Sc2cccc(C(F)(F)F)c2)n(COCCO)c(=O)[nH]c1=O | 44.7 µM
Cc1c(Sc2ccccc2)n(COCCN=[N+]=[N-])c(=O)[nH]c1=O | 5.75 µM
Cc1c(Sc2ccc(Cl)cc2)n(COCCO)c(=O)[nH]c1=O | 251 µM
Cc1c(Sc2cccc(C(=O)O)c2)n(COCCO)c(=O)[nH]c1=O | 355 µM
CCCCOCn1c(Sc2ccccc2)c(C)c(=O)[nH]c1=O | 4.68 µM

SMILES | IC50
COC(=O)c1c(Sc2ccccc2)n(COCCO)c(=O)[nH]c1=O | 6.61 µM
Cc1c(Sc2cccc([N+](=O)[O-])c2)n(COCCO)c(=O)[nH]c1=O | 33.9 µM
CC(=O)c1ccc(Sc2c(C)c(=O)[nH]c(=O)n2COCCO)cc1 | 110 µM
Cc1c(Sc2cccc(C#N)c2)n(COCCO)c(=O)[nH]c1=O | 10 µM
Cc1ccc(Sc2c(C)c(=O)[nH]c(=O)n2COCCO)cc1 | 219 µM
O=c1[nH]c(=O)n(COCCO)c(Sc2ccccc2)c1C#Cc1ccccc1 | 3.39 µM
Cc1c(Sc2cccc(I)c2)n(COCCO)c(=O)[nH]c1=O | 10 µM
CCc1c(Sc2ccccc2)n(COC2CCCCC2)c(=O)[nH]c1=O | 3.98 µM
Cc1c(Sc2ccc(O)cc2)n(COCCO)c(=O)[nH]c1=O | 275 µM
Cc1cccc(Sc2c(C)c(=O)[nH]c(=O)n2COCCO)c1 | 2.57 µM
CC(C)C(=O)c1c(Sc2ccccc2)n(COCCO)c(=O)[nH]c1=O | 12 µM
CC(=O)OCCOCn1c(Sc2ccccc2)c(C)c(=O)[nH]c1=O | 6.76 µM
COc1ccc(Sc2c(C)c(=O)[nH]c(=O)n2COCCO)cc1 | 251 µM
Cc1c(Sc2cccc(N)c2)n(COCCO)c(=O)[nH]c1=O | 251 µM
O=c1[nH]c(=O)n(COCCO)c(Sc2ccccc2)c1Cc1ccccc1 | 42.7 µM
O=c1[nH]c(=O)n(COCCO)c(Sc2ccccc2)c1I | 3.63 µM
Cc1c(Sc2cccc(C(N)=O)c2)n(COCCO)c(=O)[nH]c1=O | 309 µM
COc1ccccc1Sc1c(C)c(=O)[nH]c(=O)n1COCCO | 19.1 µM
CC#Cc1c(Sc2ccccc2)n(COCCO)c(=O)[nH]c1=O | 19.1 µM
Cc1c(Sc2ccc([N+](=O)[O-])cc2)n(COCCO)c(=O)[nH]c1=O | 191 µM

SMILES | IC50
Cc1c(Sc2cccc(O)c2)n(COCCO)c(=O)[nH]c1=O | 81.3 µM
Cc1c(Sc2cccc(Br)c2)n(COCCO)c(=O)[nH]c1=O | 5.75 µM
Cc1c(O)nc(O)nc1Sc1ccccc1 | 251 µM
Cc1c(Sc2ccc(C#N)cc2)n(COCCO)c(=O)[nH]c1=O | 251 µM
CC(=O)c1cccc(Sc2c(C)c(=O)[nH]c(=O)n2COCCO)c1 | 7.24 µM
O=C(Nc1ccccc1)c1c(Sc2ccccc2)n(COCCO)c(=O)[nH]c1=O | 18.2 µM
Cc1c(Sc2ccccc2)n(COCCOC(=O)c2ccccc2)c(=O)[nH]c1=O | 7.59 µM
Cc1c(Sc2cccc(CO)c2)n(COCCO)c(=O)[nH]c1=O | 295 µM
O=c1[nH]c(=O)n(COCCO)c(Sc2ccccc2)c1/C=C/c1ccccc1 | 6.03 µM
COC(=O)c1cccc(Sc2c(C)c(=O)[nH]c(=O)n2COCCO)c1 | 7.94 µM
O=C(c1ccccc1)c1c(Sc2ccccc2)n(COCCO)c(=O)[nH]c1=O | 12.9 µM
Cc1c(Sc2ccccc2)n(COCCO)c(=O)[nH]c1=O [HEPT] | 7.08 µM
CCCOCn1c(Sc2ccccc2)c(C)c(=O)[nH]c1=O | 3.31 µM
CCCCCOCCOCn1c(Sc2ccccc2)c(C)c(=O)[nH]c1=O | 34.7 µM
Cc1c(Sc2ccc(F)cc2)n(COCCO)c(=O)[nH]c1=O | 251 µM
Cc1c(Sc2ccccc2Cl)n(COCCO)c(=O)[nH]c1=O | 129 µM
CCCc1c(Sc2ccccc2)n(COCCO)c(=O)[nH]c1=O | 3.39 µM
Cc1c(Sc2cccc(Cl)c2)n(COCCO)c(=O)[nH]c1=O | 12.9 µM
Cc1ccccc1Sc1c(C)c(=O)[nH]c(=O)n1COCCO | 70.8 µM

The next compounds have a lower IC50 than those just listed; values first:

IC50 | SMILES
0.0263 µM | CCOCn1c(Sc2ccccc2)c(CC)c(=O)[nH]c1=S
0.219 µM | CCc1c(Sc2ccccc2)n(COC(C)C)c(=S)[nH]c1=O
0.0589 µM | CC(C)c1c(Sc2ccccc2)n(COCCO)c(=S)[nH]c1=O
0.339 µM | CCc1c(Sc2ccccc2)n(COC(C)C)c(=O)[nH]c1=O
0.0955 µM | CCc1c(Sc2ccccc2)n(COCCc2ccccc2)c(=O)[nH]c1=O
0.11 µM | CCc1c(Sc2ccccc2)n(COCCO)c(=S)[nH]c1=O
0.00741 µM | CCOCn1c(Sc2cc(Cl)cc(Cl)c2)c(CC)c(=O)[nH]c1=O
1.29 µM | Cc1c(Sc2cc(Cl)cc(Cl)c2)n(COCCO)c(=O)[nH]c1=O
0.1 µM | CCOCn1c(Sc2ccccc2)c(C2CC2)c(=O)[nH]c1=O
0.00309 µM | CC(C)c1c(Sc2ccccc2)n(COCc2ccccc2)c(=O)[nH]c1=O
0.355 µM | CCc1c(Sc2ccccc2)n(COCC2CCCCC2)c(=S)[nH]c1=O
1.1 µM | Cc1c(Sc2ccccc2)n(COCCF)c(=O)[nH]c1=O
0.00724 µM | CCc1c(Sc2cc(C)cc(C)c2)n(COCc2ccccc2)c(=S)[nH]c1=O
0.12 µM | CCc1c(Sc2ccccc2)n(COCCO)c(=O)[nH]c1=O
0.0871 µM | Cc1c(Sc2ccccc2)n(COCc2ccccc2)c(=O)[nH]c1=O
0.0427 µM | CCc1c(Sc2cc(Cl)cc(Cl)c2)n(COCCO)c(=S)[nH]c1=O
0.447 µM | CCc1c(Sc2ccccc2)n(COCC2CCCCC2)c(=O)[nH]c1=O
0.00501 µM | Cc1cc(C)cc(Sc2c(C(C)C)c(=O)[nH]c(=S)n2COCCO)c1
0.0129 µM | CCOCn1c(Sc2ccccc2)c(C(C)C)c(=O)[nH]c1=S
0.00724 µM | CC(C)c1c(Sc2ccccc2)n(COCc2ccccc2)c(=S)[nH]c1=O
0.977 µM | Cc1c(Sc2ccccc2)n(COCCO)c(=S)[nH]c1=O
0.851 µM | O=c1[nH]c(=O)n(COCCO)c(Sc2ccccc2)c1C=C(c1ccccc1)c1ccccc1
0.012 µM | CCc1c(Sc2ccccc2)n(COCc2ccc(Cl)cc2)c(=S)[nH]c1=O

IC50 | SMILES
0.0191 µM | CCOCn1c(Sc2ccccc2)c(CC)c(=O)[nH]c1=O
0.00501 µM | CCOCn1c(Sc2cc(C)cc(C)c2)c(CC)c(=O)[nH]c1=S
0.0912 µM | CCc1c(Sc2ccccc2)n(COCCc2ccccc2)c(=S)[nH]c1=O
0.00813 µM | CCc1c(Sc2ccccc2)n(COCc2ccccc2)c(=S)[nH]c1=O
2.19 µM | CCn1c(Sc2ccccc2)c(C)c(=O)[nH]c1=O
0.0955 µM | CCOCn1c(Sc2ccccc2)c(C2CC2)c(=O)[nH]c1=S
0.00575 µM | CCOCn1c(Sc2cc(C)cc(C)c2)c(CC)c(=O)[nH]c1=O
1.62 µM | CCc1c(Sc2ccccc2)n(COC2CCCCC2)c(=S)[nH]c1=O
0.00776 µM | CCc1c(Sc2cc(C)cc(C)c2)n(COCCO)c(=S)[nH]c1=O
0.00589 µM | CCc1c(Sc2ccccc2)n(COCc2ccccc2)c(=O)[nH]c1=O
1.2 µM | CCCCn1c(Sc2ccccc2)c(C)c(=O)[nH]c1=O
0.0141 µM | CCc1c(Sc2cc(Cl)cc(Cl)c2)n(COCCO)c(=O)[nH]c1=O
0.0102 µM | CCOCn1c(Sc2ccccc2)c(C(C)C)c(=O)[nH]c1=O
0.0129 µM | CCOCn1c(Sc2cc(Cl)cc(Cl)c2)c(CC)c(=O)[nH]c1=S
2.09 µM | COCn1c(Sc2ccccc2)c(C)c(=O)[nH]c1=O
1.51 µM | Cc1c(Sc2ccccc2)n(COCCCl)c(=O)[nH]c1=O
0.00282 µM | CCc1c(Sc2cc(C)cc(C)c2)n(COCc2ccccc2)c(=O)[nH]c1=O
2.04 µM | C=Cc1c(Sc2ccccc2)n(COCCO)c(=O)[nH]c1=O
0.331 µM | CCOCn1c(Sc2ccccc2)c(C)c(=O)[nH]c1=O
0.0776 µM | CCc1c(Sc2ccccc2)n(COCc2ccc(C)cc2)c(=S)[nH]c1=O
0.0631 µM | CC(C)c1c(Sc2ccccc2)n(COCCO)c(=O)[nH]c1=O
0.219 µM | Cc1cc(C)cc(Sc2c(C)c(=O)[nH]c(=S)n2COCCO)c1
